Laboratory results taken from paper PMC4432287, “NsrR from Streptomyces coelicolor Is a Nitric Oxide-sensing [4Fe-4S] Cluster Protein with a Specialized Regulatory Function” (The Journal of Biological Chemistry, 2015).

Target: T1, ScNsrR ([4Fe-4S] NsrR) (Streptomyces coelicolor, UniProt Q9L132)
T1 construct: untagged native full-length protein from pNsrR, E. coli BL21λDE3, anaerobic heparin purification, homodimer (~37 kDa by gel filtration); C-terminal His6 form (apo 17,474 Da) used for native MS
Experiment: CD titration at […] nm, single-site fit
Assay type: binding

T1 sequence (Q9L132 whole entry): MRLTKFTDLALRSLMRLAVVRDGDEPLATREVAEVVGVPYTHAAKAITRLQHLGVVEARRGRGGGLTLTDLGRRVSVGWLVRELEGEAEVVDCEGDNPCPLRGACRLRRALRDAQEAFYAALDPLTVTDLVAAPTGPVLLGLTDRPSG

| Kd [mM] | SMILES |
| --- | --- |
| ~3.8 | OCCS [β-mercaptoethanol] |
| ~1.9 | CCS [thioethane] |
| 9.9 | OC(CS)C(O)CS (stereo not drawn) [dithiothreitol] |
